Assay results reported in patent US12617757B2, “Compounds and modules for inhibition of pre-miR-21 and their use in treatment of certain cancers” (University of Florida Research Foundation, Incorporated, priority 2019, dated 2026).

Key:
[1] = test system: pre-miR-21 WT RNA; test: In vitro Dicer processing of pre-miR-21 WT; format: biochemical
From the text: In vitro Dicer processing. […] Cleavage products were resolved on a denaturing 15% polyacrylamide gel, which was imaged using a Molecular Dynamics Typhoon phosphorimager and quantified with Bio-Rad's QuantityOne software, normalizing to full length RNA.

[2] = test system: pre-miR-21 BP; test: MST binding to pre-miR-21 BP (base paired control); settings: addition of 100 μM of compound
Experimental: Microscale Thermophoresis (MST) Binding Measurements. MST fluorescent measurements were performed on a Monolith NT.115 system (NanoTemper Technologies) using the fluorescence of a miR-21 hairpin (A+U Bulge): (5′ Cy5-[…]-3′) (SEQ ID NO: 1) or a miR-21 base paired control (5′ Cy5-[…]-3′) (SEQ ID NO: 2) which were purchased from IDT with RNase-free HPLC purification and used without further purification. The RNA (5 nM) was diluted in 1×MST Buffer (8 mM Na2HPO4, 190 mM NaCl, 1 mM EDTA, and 0.05% (v/v) Tween-20) and folded by heating at 60° C. for 5 min, and slowly cooling to room temperature. Compounds 1 and 2 were diluted in 1×MST Buffer, followed by 1:3 dilutions in 1×MST Buffer containing 5 nM RNA. […] Fluorescence measurements (Ex: 605-645 nm, Em: 680-685 nm) were performed at 10% LED and 80% MST power, with a Laser-On time of 30 s and Laser-Off time of 5 s. The data were analyzed by thermophoresis analysis and fitted by the quadratic binding equation in MST analysis software (NanoTemper Technologies). Dissociation constants were then determined by curve fitting using a single-site model. Normalized MST signal was calculated by normalizing the fluorescent signals using the MST data of 1 binding to pre-miR-21 WT with the lowest signal as 0 and the highest fluorescent signal as 1.

[3] = test system: PTEN; test: PTEN 3′ UTR luciferase reporter assay in MDA-MB-231 cells; format: cell-based, human
Experimental: PTEN Luciferase Assay. The MDA-MB-231 cells were grown in 48-well plates to ˜60% confluency and then transiently co-transfected with a Firefly luciferase plasmid encoding the 3′ untranslated region (UTR) of PTEN^25 and a control Renilla luciferase plasmid using Lipofectamine 2000 per the manufacturer's protocol. At 5 h post-transfection, compounds diluted in growth medium were added to cells and then incubated for 48 h. Luciferase assays were completed using a previously described protocol^23,26. Luminescence signal was measured on a Biotek Flx800 plate reader.

[4] = test system: miR-21-5p in HEK293T cells; test: RT-qPCR of mature miR-21-5p in HEK293T cells (dimer linker screening); format: cell-based; settings: n=3, n=4 and 1
[5] = test system: pre-miR-21; test: Cellular Chem-CLIP / C-Chem-CLIP in MDA-MB-231 cells; format: cell-based, human
Experimental: Cellular Chem-CLIP/C-Chem-CLIP. The MDA-MB-231 cells were grown to ˜70% confluency as monolayers in 60 mm dishes. The cells were treated with Chem-CLIP compounds (8 or 9) and/or non-cross-linking competitors (1 or 2) for 48 h. Total RNA was extracted using a Quick-RNA MiniPrep Kit (Zymo Research) per the manufacturer's protocol. Approximately 20-30 μg of total RNA was then incubated with 100 μL of streptavidin-agarose beads (Sigma-Aldrich) and shaken for 1 h at room temperature. The solution was removed beads washed six times with 1×PBS. The RNA bound to beads was released, purified, and used for RT-qPCR as previously described^23. Relative fold enrichment of the measured RNA before and after pulldown was measured using equation 3 (Eq. 3): Relative Fold Enrichment=2^−(ΔC^t^before pulldown−ΔC^t^after pulldown) (Eq. 3)
where “ΔCt before pulldown” is the difference between the Ct values for the RNA of interest and a housekeeping gene in total RNA from cells and “ΔCt after pulldown” is the difference between the Ct values for the RNA of interest and the same housekeeping gene in RNA after pulldown.

[6] = test system: MDA-LM2 cells; test: Boyden chamber invasion assay, MDA-LM2; format: cell-based; settings: LNA-21 100 nM, 2 1000 nM
Experimental: Boyden Chamber Invasion Assay. The MDA-MB-231, MDA-LM2, A375, A549, or MCF-10a cells (5×10^4) were seeded into Hanging Cell Culture Inserts for 24 well plates with uncoated membranes with 8.0 μm pores (Millicell) in serum free growth media. A 3 mg/mL layer (100 μL) of Matrigel (Fisher Scientific: CB40234) diluted with serum free growth media was prepared inside of each membrane. Cells were cultured as described above, with or without compound treatment, and allowed to invade towards complete growth media in the bottom well for 16-24 h before ending the experiment by removing the media in the bottom wells and inserts. The hanging cell culture inserts and bottom wells were washed twice with 1×PBS, gently shaking to mix. Excess liquid and cells inside the insert were removed with cotton swabs, after which 400 μL of 4% paraformaldehyde was placed into the bottom well and incubated for 20 min at room temperature to fix the cells. […] Four different fields of view from each captured image were counted for crystal violet stained or unstained cells. Normalized cells invaded was calculated with equation 5 (Eq 5): […]
(§1) where stained cells represent cells counted with crystal violet stain observed in the compound treated or vehicle treated samples, respectively.

[7] = DMPK: plasma levels in C57BL/6 mice; format: in vivo, mouse; settings: i.p., 10 mg/kg
Experimental: DMPK Measurements: Male C57BL/6 mice (n=3, 5-7 weeks) were used for pharmacokinetics (PK) assessment. Mice were dosed i.p. (10 mg/kg) with 5 in a formulation of DMSO/Tween-80/H2O (10/10/80) and blood (25 μL) was drawn at 0.25, 0.5, 1, 2, 4, 6, 8, and 24 h time points. Detection of compound levels in blood plasma was determined using LC/MS-MS on a QTRAP 5500 LC-MS/MS System (AB Sciex).

[8] = test system: MCF-10a cells; test: Boyden chamber invasion assay, MCF-10a; format: cell-based; settings: for effect on invasion induced by overexpression of pre-miR-21: MCF-10a + pre-miR-21
Experimental: Boyden Chamber Invasion Assay. The MDA-MB-231, MDA-LM2, A375, A549, or MCF-10a cells (5×10^4) were seeded into Hanging Cell Culture Inserts for 24 well plates with uncoated membranes with 8.0 μm pores (Millicell) in serum free growth media. A 3 mg/mL layer (100 μL) of Matrigel (Fisher Scientific: CB40234) diluted with serum free growth media was prepared inside of each membrane. Cells were cultured as described above, with or without compound treatment, and allowed to invade towards complete growth media in the bottom well for 16-24 h before ending the experiment by removing the media in the bottom wells and inserts. The hanging cell culture inserts and bottom wells were washed twice with 1×PBS, gently shaking to mix. Excess liquid and cells inside the insert were removed with cotton swabs, after which 400 μL of 4% paraformaldehyde was placed into the bottom well and incubated for 20 min at room temperature to fix the cells. The wells and inserts were washed twice with 1×PBS and then treated with 400 μL of 0.1% crystal violet solution for 20 min at room temperature to stain the cells. The wells and inserts were washed twice with water, followed by one wash with 1×PBS. Inserts were dried with cotton swabs to remove extra stain and cells inside the insert, then were air-dried, followed by Brightfield microscopic analysis using a Leica DMI3000 B […] fluorescent microscope. Four different fields of view from each captured image were counted for crystal violet stained or unstained cells. Normalized cells invaded was calculated with equation 5 (Eq 5): […]
as §1

| Compound | inhibition of / protection from Dicer processing [1] | saturation of the binding isotherm [2] | increase of PTEN luciferase signal relative to mock or scramble controls [3] | increase of PTEN levels ([3]; 10 μM) | inhibition of miR-21 levels, dose response of linker lengths [4] | potency in occupying pre-miR-21 in cells versus Formula 1 (C-Chem-CLIP) ([5]; MDA-MB-231) | competition of Chem-CLIP enrichment (C-Chem-CLIP) ([5]; MDA-MB-231, versus probe 8) | effect on invasion [6] | concentrations maintained in mice (plasma) [7] | effect on invasion induced by overexpression of pre-miR-21 [8] | effect on invasion induced by overexpression of pre-miR-21 ([8]; listed as Formula 5) | effect on invasion ([8]; MCF-10a, no pre-miR-21 overexpression) |
| --- | --- | --- | --- | --- | --- | --- | --- | --- | --- | --- | --- | --- |
| CCCN(CC(=O)N(CCC)CC(=O)N(CCC)CC(=O)N(CC(N)=O)Cc1cn(CCCNC(=O)CCCOc2ccc(-c3nc4cc(-c5ccc(N6CCN(C)CC6)cc5)ccc4[nH]3)cc2)nn1)C(=O)CNCc1cn(CCCNC(=O)CCCOc2ccc(-c3nc4cc(-c5ccc(N6CCN(C)CC6)cc5)ccc4[nH]3)cc2)nn1 [Compound 2] | Protection with compound is observed at U23 (boxes marked with arrows) and U26 and U27 | No saturation of the binding isotherm was observed | ~1.5 fold | ~50% | most significantly inhibited miR-21 levels | 20 fold | enrichment is depleted | decreased the invasive phenotype | – | – | – | – |
| CCCN(CC(=O)N(CCC)CC(=O)N(CCC)CC(=O)N(CC(=O)NCCOCCOCCOCCOc1ccc(C=C2SC(Nc3ccccc3)=C(C(=O)OCC)C2=O)cc1O)Cc1cn(CCCNC(=O)CCCOc2ccc(-c3nc4cc(-c5ccc(N6CCN(C)CC6)cc5)ccc4[nH]3)cc2)nn1)C(=O)CN(Cc1cn(CCCNC(=O)CCCOc2ccc(-c3nc4cc(-c5ccc(N6CCN(C)CC6)cc5)ccc4[nH]3)cc2)nn1)C(C)=O [Compound 5] | – | – | – | – | – | – | – | – | low nanomolar concentrations | decreased invasion | inhibited invasion | no effect on invasion |
